One may read the TGI as the concentration at which net growth stops. Lower therefore signals greater sensitivity of the cells. The GI50 is the concentration giving 50% growth inhibition.

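Step 1: Grow cells in 96-well plates. Step 2: Expose to compound for 48 hours at 5 concentrations. Step 3: Interpolate endpoints linearly; if unreached, use highest concentration. GI50: concentration for 50% inhibition of growth. TGI is the concentration that stops growth completely.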 Where a SMILES comes first, the peptide text is derived from it. The star is where a group is joined. Boc = CC(C)(C)OC(=O)*

TGI and GI50 data for 29 compounds are collected here from PubChem BioAssay (NCI).

Common to all, as to test: DTP human tumour cell line panel, 48 h
Assay [1] deals with SK-MEL-2 melanoma.
Assay [2] has as its system SF-539 CNS.
The subject of assay [3] is 786-0 renal.
The test system of assay [4] is U251 CNS.
Assay [5] relates to CAKI-1 renal.
For assay [6], the system named is HCC-2998 colon.
In assay [7] the test system is MCF7 breast.
In assay [8] the test system is UO-31 renal.
Assay [9] has as its system NCI/ADR-RES ovarian.
Assay [10] concerns SK-OV-3 ovarian.

Take `N#CC(c1ccccc1)c1cccc2ccccc12` (stereo unspecified): the TGI in assay [1] was 56.2 µM; in assay [2], over 100 µM; in assay [3] it was over 100 µM; in assay [4], over 100 µM; in assay [5] it was 52.1 µM; in assay [6], 81.8 µM. The TGI in assay [7] is 92.4 µM; in [8], over 100 µM; in [9] it was over 100 µM.

`O=C1NC(N2CCOCC2)=N/C1=C\c1ccccc1O`: the TGI in assay [1], in [2], in assay [3], in [4], in [10] and in assay [5] was over 100 µM each time. Moreover, the TGI in [7], in [8] and in [9] was over 100 µM throughout.

Turning to `COc1ccc(-c2cn3ccnc3c(-c3ccc4ncn(C5CCCCC5)c4c3)n2)cc1`, the GI50 in assay [1] was 0.944 µM; in assay [4], 2.22 µM; in [10], 0.508 µM; in assay [5], 0.757 µM; in assay [6], 2.92 µM; in [7], 0.64 µM. The GI50 in [8] is 1.35 µM. Besides, the TGI in assay [1] is over 100 µM; in assay [4], over 100 µM; in [10], 7.64 µM; in assay [5], over 100 µM; in assay [6], over 100 µM; in assay [7], over 100 µM. In assay [8], this compound had a TGI of over 100 µM.

For `O=C1/C(=C/c2cccs2)N=C(c2ccccc2)N1C1Nc2cc3c(cc2S1)NC(N1C(=O)/C(=C/c2cccs2)N=C1c1ccccc1)S3` (stereo unspecified), the TGI in [1] was 36.9 µM; in assay [2], 31.3 µM; in assay [3], 43.1 µM; in assay [4], 32.7 µM; in [5], over 100 µM; in assay [6], 43.3 µM. Moreover, the TGI in assay [7] was over 100 µM; in assay [8], over 100 µM; in assay [9] it was 33.6 µM.

Turning to `CN(C)Cc1cc(C(=O)/C=C/c2ccc(/C=C/C(=O)c3cc(CN(C)C)c(O)c(CN(C)C)c3)cc2)cc(CN(C)C)c1O`, the TGI in assay [1] was over 100 µM; in assay [2] it was 78.8 µM; in assay [3] it was 58.1 µM; in [4] it was 47 µM; in [5], over 100 µM; in [6] it was 33.4 µM. In addition, the TGI in assay [7], in assay [8] and in assay [9] was over 100 µM throughout.

On to `O=C(CSC1=NCCN1)c1ccccc1`, for which the TGI in assay [1], in assay [2], in [3], in assay [4], in [10] and in [5] was over 100 µM throughout. Also, the TGI in assay [7], in assay [8] and in assay [9] was over 100 µM throughout.

Take `CCN(CC)C(=O)CCCCCCCCC1CO1` (stereo unspecified): the total growth inhibition concentration (TGI) in assay [1], in [2], in [3], in [4], in [10] and in assay [5] was over 100 µM in each case. Further, the TGI in assay [7], in assay [8] and in assay [9] was over 100 µM in each case.

As to `Cc1nnc2c3c(-c4ccccc4)c(-c4ccccc4)oc3nc(N(C)C)n12`, the TGI was over 100 µM in assay [2]; over 100 µM in assay [3]; over 100 µM in [4]; over 100 µM in [10]; over 100 µM in assay [5]; 60.5 µM in [6]. Moreover, the TGI in assay [7], in assay [8] and in [9] was over 100 µM each time.

In the case of `C=C[C@H]1CN2CC[C@H]1C[C@@H]2[C@@H](O)c1ccnc2ccccc12`, the TGI in [1], in assay [2], in assay [3], in [4], in [10] and in assay [5] was over 100 µM in each case. The TGI in [7], in assay [8] and in assay [9] was over 100 µM each time.

For the compound `CCOC(=O)/C=C(/C(=O)OCC)n1cc(C)c(=O)n(Cc2cnnn2CCCCOC(C)=O)c1=O`, the TGI in assay [1] is over 100 µM; in assay [2], 32.9 µM; in [3] it was 78.4 µM; in [4], over 100 µM; in [10], over 100 µM; in assay [5], 21.4 µM. The values for the TGI in assay [7], in [8] and in assay [9] were 32.5 µM, 36.6 µM and 69.3 µM, respectively.

Regarding `O=[N+]([O-])C(=C(NCc1ccccc1)NCc1ccccc1)C(Cl)=C(Cl)Cl`, the TGI is over 100 µM in assay [2]; over 100 µM in assay [3]; over 100 µM in assay [10]; 55.6 µM in [5]; over 100 µM in assay [6]; over 100 µM in [7]. Besides, the TGI in assay [8] and in assay [9] was over 100 µM throughout.

With `CCN(CC)CCNc1ccc(N=Nc2ccc(S(N)(=O)=O)cc2)c2ccccc12`, the TGI is 28.2 µM in assay [1]; 12.8 µM in assay [2]; over 100 µM in [3]; over 100 µM in assay [4]; 31.2 µM in assay [5]; 29.1 µM in assay [6]. For the same compound, the TGI in assay [7] was 47 µM; in [8], 20.8 µM; in assay [9] it was over 100 µM.

For `COc1cccc(/C=C/C2=NN(c3cccc(S(=O)(=O)O)c3)C3(C2)SCC(=O)N3c2nc3ccccc3s2)c1` (stereo unspecified), the TGI in assay [1] is over 100 µM; in assay [2], 37.4 µM; in [3], 43.1 µM; in assay [4] it was over 100 µM; in assay [5], over 100 µM; in [6] it was over 100 µM. In addition, the TGI in assay [7], in [8] and in [9] was over 100 µM throughout.

For the compound `S=C1CC(c2ccc(Cl)cc2)Sc2ccccc2N1` (stereo unspecified), the TGI in assay [3] was over 100 µM; in assay [4] it was over 100 µM; in assay [10], 56.9 µM; in assay [5], over 100 µM; in assay [7], over 100 µM; in assay [8] it was over 100 µM. In [9], this compound came in with a TGI of over 100 µM.

Regarding `CO[P@]1(=O)O[C@@H](c2ccccc2)[C@H](O)[C@]1(O)c1ccccc1`, the TGI in [1], in [2], in assay [3], in assay [4], in assay [10] and in [5] was over 100 µM in each case. Moreover, the total growth inhibition concentration (TGI) in [7], in assay [8] and in assay [9] was over 100 µM each time.

In the case of `Cn1c(N/N=C/c2ccc(Cl)cc2)nc(-c2ccc(Cl)cc2)c(C#N)c1=O`, the TGI is 33.1 µM in assay [1]; 45 µM in assay [2]; 29.8 µM in assay [3]; 72.1 µM in assay [4]; over 100 µM in assay [10]; over 100 µM in assay [5]. Moreover, the TGI is 67.8 µM in assay [7], 33 µM in [8] and over 100 µM in assay [9].

In the case of `O=C(CSc1nc2ccc(I)cc2c(=O)n1Cc1ccccc1)Nc1ccc(Br)cc1`, the total growth inhibition concentration (TGI) in assay [1] was over 100 µM; in assay [2], 6.1 µM; in [3], over 100 µM; in assay [4] it was over 100 µM; in assay [10], over 100 µM; in assay [5] it was 20.2 µM. Also, the total growth inhibition concentration (TGI) in assay [7] is over 100 µM; in assay [8], 0.382 µM; in [9], over 100 µM.

As to `CCCCCCCCOCC1S(=O)(=O)OCCOS1(=O)=O`, the TGI in assay [1], in assay [2], in assay [3], in assay [4], in [10] and in [5] was over 100 µM each time. In addition, the TGI in [6], in assay [8] and in [9] was over 100 µM throughout.

On to `CC(NC(=O)C(NC(=O)OC(C)(C)C)C(C)C)C(=O)NCC(=O)O` (stereo not drawn) (Boc-Val-Ala-Gly-OH; configuration not given here), for which the TGI in [1], in [2], in assay [3], in assay [4], in assay [10] and in [5] was over 100 µM in each case. In addition, the TGI in assay [6], in [8] and in assay [9] was over 100 µM each time.

In the case of `c1ccc2c(c1)SC1Sc3ccccc3[S+]21` (stereo unspecified), the TGI was over 100 µM in [1]; 54.9 µM in [2]; over 62.4 µM in assay [3]; 45.5 µM in [4]; over 100 µM in [10]; 44.8 µM in [5]. Further, the TGI in [7] was over 69.2 µM; in assay [8] it was 50.9 µM; in [9] it was 51 µM.

`O=C(c1cccs1)N(C(=O)N1CCC(c2ccccc2)CC1)c1ccccc1`: the TGI in assay [1], in assay [2], in assay [3], in assay [4], in [10] and in assay [5] was over 100 µM each time. Moreover, the results for the TGI in assay [7], in [8] and in assay [9] were over 100 µM, 76.9 µM and over 100 µM, respectively.

On to `Cc1ccc2[nH]c(=O)c(-c3cnc(=O)[nH]n3)c(O)c2c1`, for which the TGI in assay [1], in assay [2], in [3], in [4], in [10] and in [5] was over 100 µM throughout. For the same compound, the TGI in [7], in assay [8] and in assay [9] was over 100 µM in each case.

Take `CC(Nc1cc(Cl)cc(Cl)c1)c1ccncc1` (stereo unspecified): the TGI amounted to 40.8 µM in assay [2]; 51.3 µM in [3]; 35.2 µM in assay [4]; 52.4 µM in assay [5]; 37.1 µM in assay [6]; 34.3 µM in assay [7]. Besides, the values for the TGI in [8] and in assay [9] were 27.3 µM and 63.7 µM, respectively.

As for `Brc1ccc2c(c1)C1=C(CO2)Cc2ccccc2O1`, the TGI in [1] was 34.3 µM; in assay [2], 36.3 µM; in [3], 43.7 µM; in [4], 36.3 µM; in assay [10] it was 46.7 µM; in assay [5], 32.3 µM. Moreover, the TGI in assay [6] amounted to 32.3 µM; in assay [8], 30.6 µM; in assay [9] it was 58.3 µM.

On to `Cc1cc2ccccc2c[n+]1CC(=O)CC([O-])(C(F)(F)F)C(F)(F)F`, for which the TGI in assay [1], in assay [2], in [3], in assay [4], in assay [10] and in assay [5] was over 100 µM each time. Moreover, the TGI in assay [6], in assay [8] and in assay [9] was over 100 µM in each case.

In the case of `COc1ccc(-c2cc(-c3ccc(Nc4ccnc5cc(Cl)ccc45)cc3)nc(N)c2C#N)c2ccccc12`, the TGI in assay [1], in [2], in assay [3], in assay [4], in [5] and in assay [6] was over 100 µM in each case. The TGI in [7], in assay [8] and in [9] was over 100 µM throughout.

With `CN(C)c1ccc(/C=N/NC2=N/C(=C\c3ccco3)C(=O)N2)cc1`, the TGI in assay [1], in [2], in [3], in assay [4], in [10] and in assay [5] was over 100 µM each time. In addition, the TGI in assay [8] and in assay [9] was over 100 µM throughout.

With `O=C(CCCC(=O)N1CC(CCl)c2ccc([N+](=O)[O-])cc21)N1CC(CCl)c2ccc([N+](=O)[O-])cc21` (stereo unspecified), the TGI in assay [1], in assay [2], in assay [3], in assay [4], in [10] and in assay [5] was over 100 µM each time. Besides, the TGI in assay [6], in assay [7] and in assay [8] was over 100 µM in each case.

Regarding `c1ccc(N=NNNc2ccc(-c3nc4ccccc4[nH]3)cc2)cc1`, the total growth inhibition concentration (TGI) was 88.7 µM in [1]; over 100 µM in [2]; over 100 µM in assay [3]; over 100 µM in assay [4]; over 100 µM in assay [10]; over 100 µM in assay [5]. Also, the TGI in assay [7] is 69.9 µM; in assay [8], over 100 µM; in assay [9] it was 75.1 µM.
